“Also recorded” adds a separate entry of the source.
Test system: MDA-MB-231 cells
Test: Acridine orange/ethidium bromide
Assay type: cell-based, human
Details: fluorescence microscopy

Row | SMILES | Cell death / apoptosis by AO/EB staining
1 | COc1cc(/C=C/C(=O)c2c3[nH]c4ccccc4c3cc[n+]2Cc2ccccc2)cc(OC)c1OC.[Br-] [Compound 13g] | induces apoptosis; also recorded: markedly induced cell death
2 | COc1cccc2c1C(=O)c1c(O)c3c(c(O)c1C2=O)C[C@@](O)(C(=O)CO)C[C@@H]3O[C@H]1C[C@H](N)[C@H](O)[C@H](C)O1 [Doxorubicin, reference compound] | morphological changes characteristic of apoptotic cells formation

Reference: paper PMC6423518 (Bioorganic & medicinal chemistry letters, 2018)
